Laboratory results published in patent US20130237452A1, “Screening method for selecting plants that show a reduced wound-induced surface discolouration” (RIJK ZWAAN ZAADTEELT EN ZAADHANDEL B.V., priority 2006, published 2013).
Entries after “also recorded” stand apart in the source; their conditions may differ.

Columns and labels:
PPO = experiment: L-DOPA leaf disc assay: black discolouration (melanin) at wound surface; type: cell-based, lettuce
Protocol: In addition to assays which address wound-induced discolouration in a broad sense, the method according to this invention also allows to screen in a more specific manner for mutants which have a reduced PPO activity. A phenotypic assay which is indicative for PPO activity was developed by using leaf discs which were incubated in the presence of 1.5 mM L-DOPA. […] Furthermore, it was shown that the reaction can be inhibited by adding 1 mM L-cysteine during the reaction (FIG. 5). Therefore, this assay enabled the identification of mutants which are modified in the ability to mount a PPO activity at a wound surface of a leaf. The response of lettuce leaf discs to the presence of L-DOPA can be observed both in solution as well as between wetted filter papers as shown in FIG. 13.

seeds of eggplant = experiment: L-DOPA assay on seeds
Protocol: (§1) Seeds of lettuce and eggplant were incubated with 0, 2.5 and 5 mM L-DOPA. […] The response is PPO-dependent because it can be inhibited with L-cysteine.

seeds of lettuce = experiment: L-DOPA assay on seeds
Protocol: as §1

[1] = test system: germinated seeds of lettuce; experiment: L-DOPA assay on germinated seeds
Protocol: Germinated seeds of lettuce were incubated with L-DOPA. […] This colour reaction can be used for screening seeds that show a reduced discolouration.

lettuce leaf discs = experiment: leaf disc pinking assay: wound-induced pink discolouration between wetted filter papers; type: cell-based; details: for effect on formation of the pink dye (pinking response): applied during the reaction; for concentration at which the pink discolouration was completely inhibited: applied during the assay, 5° C. for 7 days
Protocol: A phenotypic assay was developed in which leaf discolouration of lettuce induced by wounding can readily be assessed. This approach allows young plant screening for discolouration. Leaf discs of 5 mm diameter were taken from young or mature plants and placed between wetted filter papers in a tray. The system was incubated at 5° C. for 7 days. During the incubation a pink dye developed at the wound site of the leaf disc which became clearly visible as a printed circle on the filter paper (FIG. 2).

[2] = treatment of the formed pink dye after the wound response was completed; parameters: species or system lettuce; details: added after the wound response was completed; 0-10 mM series for L-cysteine
Protocol: (§2) As L-cysteine is known to react with o-quinones, which are PPO products, by converting them back into colourless diphenols, the effects of L-cysteine on the pink dye coming from lettuce leaf discs was determined. In parallel the effect of L-cysteine was determined on the melanin formation upon incubation with L-DOPA. Leaf discs were taken and incubated according to the procedures described above. After the wound response was completed, a concentration series of L-cysteine was added to the leaf disc and the change in colour was monitored.

[3] = treatment of melanin formed in the L-DOPA assay after the response was completed; parameters: species or system lettuce; details: added after the response was completed; 0-10 mM series
Protocol: as §2

[4] = test system: field-grown lettuce plant showing severe pinking symptoms; experiment: pinking of leaf discs from field-grown lettuce; details: 1 mM, approximately 30 minutes at room temperature
Protocol: This is typically observed when plants have been stressed, for example by conditions of severe water logging. The leaf was used to prepare leaf discs which were incubated immediately by 1 mM L-cysteine.

[5] = test system: lettuce outer leaf midrib tissue discs; experiment: midrib disc / cut leaf browning assay; type: cell-based
Protocol: A further embodiment of this invention is based on the following experiment. Parts of a lettuce leaf of a head are produced by cutting and incubated at 16° C. in air. As a response the wound surface turns brown after approximately 4 days. Especially at the wound surface of the main vein the browning can clearly be observed. Furthermore, the browning reaction can also be observed at the whole plant level upon damaging leaves by cutting or abrasion. Lettuce plants were grown to maturity and parts of outer leaves were taken by cutting discs from the rib tissue. The discs were incubated on wetted filter paper at 16° C. After approximately 72 hours, the wound surface had turned brown.

leaf discs of lettuce = experiment: chlorogenic acid assay on leaf discs; type: cell-based
Protocol: Leaf discs of lettuce were incubated with 10 mM chlorogenic acid on filter paper.

lettuce seeds = experiment: catechol assay on seeds
Protocol: Lettuce seeds were incubated with 0, 100, 250, 500, 750 and 1000 mg/L catechol.

SMILES: N[C@@H](Cc1ccc(O)c(O)c1)C(=O)O [L-DOPA, L-3,4-dihydroxyphenylalanine]
- discolouration at the wound surface on incubation with the substrate (PPO; 1.5 mM L-DOPA): dark brown to black discolouration
- colour reaction of seeds with the substrate (seeds of eggplant; 0, 2.5 and 5 mM): concentration dependent
- colour reaction of seeds with the substrate (seeds of lettuce; 0, 2.5 and 5 mM): concentration dependent
- colour reaction of seed coat and root zone with the substrate [1]: show a colour reaction

SMILES: C[C@H](N)C(=O)O [L-alanine]
- effect on formation of the pink dye (pinking response) (lettuce leaf discs): did not show any effect

SMILES: N[C@@H](CS)C(=O)O [L-cysteine]
- concentration at which the pink discolouration was completely inhibited (lettuce leaf discs): ≥ 0.001%
- effect on formation of the pink dye (pinking response) (lettuce leaf discs): strongly suppressed
- effect on black L-DOPA discolouration (PPO; applied simultaneously with L-DOPA): completely inhibited
- effect on the already formed pink dye [2]: converting the pink dye back into a colourless compound; also recorded: converted into a colourless compound
- effect on already formed black melanin [3]: not affected
- effect on pink discolouration of field-grown leaf material [4]: pink discolouration disappeared; also recorded: eliminated
- effect on browning response of midrib discs ([5]; 10 mM, 16° C., approximately 72 hours): inhibited
- effect on wound-induced browning reactions (cut leaf parts, whole plant) ([5]; 16° C. in air, concentration not given): completely be inhibited
- effect on chlorogenic acid induced colour (leaf discs of lettuce; added to discs incubated with 10 mM chlorogenic acid): the colour disappeared again
- effect on L-DOPA colour response of seeds (seeds of eggplant): inhibited
- effect on L-DOPA colour response of seeds (seeds of lettuce): inhibited
- effect on catechol colour response of seeds (lettuce seeds): inhibited

SMILES: CC(C)C[C@H](N)C(=O)O [L-leucine]
- effect on formation of the pink dye (pinking response) (lettuce leaf discs): did not show any effect

SMILES: O=C1O[C@H]([C@@H](O)CO)C(O)=C1O [ascorbic acid]
- effect on the already formed pink dye [2]: convert the pink dye into a colourless compound

SMILES: Oc1ccccc1O [catechol]
- colour response of seeds with the substrate (lettuce seeds; 0, 100, 250, 500, 750 and 1000 mg/L): concentration dependent colour response

SMILES: O=C(/C=C/c1ccc(O)c(O)c1)O[C@@H]1C[C@](O)(C(=O)O)C[C@@H](O)[C@H]1O [chlorogenic acid]
- discolouration of discs on incubation with the substrate (leaf discs of lettuce; 10 mM on filter paper): browning

SMILES: O=CC=Cc1ccccc1 [cinnamaldehyde]
- concentration at which the pink discolouration was completely inhibited (lettuce leaf discs): ≥ 0.01%
- effect on formation of the pink dye (pinking response) (lettuce leaf discs): inhibited

SMILES: N[C@@H](CCC(=O)N[C@@H](CS)C(=O)NCC(=O)O)C(=O)O [glutathion]
- effect on the already formed pink dye [2]: convert the pink dye into a colourless compound
